The text below walks through data of patent US20260285860A1, “INHIBITORS OF cGAS AND USES THEREOF” (The Trustees of Columbia University in the City of New York, priority 2023, published 2026).

One test deals with HCC44. Kind of test: Treatment of HCC44 with cGAS inhibitor, STING signaling in response to cGAMP stimulation. The following applies: HCC44 cells. Format: cell-based, human. The source says:
Suppression of CIN or cGAS activity restores immunogenic potential of LKB1-deficient NSCLC. In experiments, relief of tonic STING activation via cGAMP could be removed by genetically deleting cGAS. Treatment of HCC44 with a commercially available human-selective cGAS inhibitor (G150) restored STING protein levels and enhanced pTBK1 and pIRF3 in response to cGAMP stimulation, thus, phenocopying genetic cGAS deletion experiments.

Test [1] relates to KL, 4T1, CT26, B16F10 and E0771.1mb tumors. Kind of test: MSA-2 treatment of transplanted wild type or Cgas KO tumors. Format: in vivo. The text has this:
To test if loss of tumor cell cGAS activity would sensitize otherwise resistant chromosomally unstable tumors to STING agonists, wild type or Cgas KO cells […] biweekly with MSA-2.

For another test, the system named is macrophages. Kind of test: Macrophage polarization assays with conditioned media from MSA-2-treated cancer cells. Format: cell-based. As for the experimental part:
(§1) Given mounting evidence on reprograming of macrophages by STING agonists, macrophage polarization assays were carried out. […] Finally, KL, 4T1, and EO771.1mb were inoculated subcutaneously (KL) or orthotopically (4T1 and EO771.1mb) to evaluate the efficacy of RU.521 and MSA-2 combination treatment. Animals were pre-treated with RU.521 to ensure sufficient drug exposure by the time the first MSA-2 dose was administrated and continued RU.521 throughout the treatment course. Animals were treated with MSA-2 when tumors reached ~100 mm3.

Test [2] concerns KL, 4T1, and EO771.1mb tumors. Kind of test: RU.521 and MSA-2 combination treatment of KL, 4T1 and EO771.1mb tumors in animals. The following applies: KL (subcutaneous), 4T1 and EO771.1mb (orthotopic); agent alone. In kind it is in vivo. As for the experimental part:
as §1

Setting [3] is: Cgas KO tumors, KL, 4T1, CT26, B16F10, MSA-2 biweekly.

For the compound `Nc1ccc(-c2cc(Cl)c(Cl)c3[nH]c4c(c23)CN(C(=O)CO)CC4)cn1` [G150], in the test on HCC44, the STING protein levels result is reported as “restored”. Moreover, in the test with HCC44 (cGAMP stimulation), the “pIRF3 in response to cGAMP stimulation” value is “enhanced” and the “pTBK1 in response to cGAMP stimulation” value is “enhanced”.

As to `COc1cc2cc(C(=O)CCC(=O)O)sc2cc1OC` [MSA-2], in test [1] (setting [3]), the “survival of treated animals” value was “extending the survival” and the tumor growth result was “significantly slowed the growth”. In addition, the survival of animals result in test [1] (E0771.1mb Cgas KO tumors) is reported as “prolonged survival”. The tumor growth entry in test [1] (E0771.1mb tumors, both cGAS proficient and deficient) is recorded as “grew slightly slower”. Moreover, in test [1] (wildtype tumors), the “tumor growth and survival benefit” value is given as “comparatively minimal effect”. For the same compound, the “Arginase 1 (M2-like marker) in macrophages” value in the test on macrophages (conditioned media from KL, 4T1, CT26 and B16F10 cells treated with MSA-2, with inhibition of cGAS in cancer cells) is “reductions of Arginase 1”. Further, the “iNOS (M1-like marker) in macrophages” value in the test on macrophages (conditioned media from MSA-2-treated Cgas KO cells versus wildtype MSA-2-treated cancer cells) is “robust increase in iNOS”. The “tumor growth, single agent” value in test [2] was “did not significantly hinder tumor growth”.
